Measured values taken from US5534498A, “Trypsin inhibitors” (Corvas International, Inc., priority 1993, dated 1996).
Residues, ends and D or L forms follow the SMILES beside them. *: point of attachment. Boc = CC(C)(C)OC(=O)*

Columns and labels:
Type in all cases: biochemical
human kallekrein = target: T1, human kallekrein (Homo sapiens, UniProt P03952); test: Kallikrein assay (S-2302 substrate)
T1 construct: 50 μL of 4 to 9 nM human kallekrein
Description: (§1) The specificity of the peptide aldehydes (8 through 12) was determined in vitro by measurement of their IC50 against other enzymes involved in hemostasis. A specific concentration of enzyme and its substrate were challenged with varying concentrations of inhibitor. […] Specific assay procedures used are presented below.
(§2) 96-well microtiter plates were prepared for use in these assays by incubating each well with 300 μL 1% bovine serum albumin (in deionized water) for 30 minutes at 37° C., then washing three times with deionized water.
(§3) The substrate was made up in deionized water prior to use.

Factor VIIa:rTF complex = target: T2, Factor VIIa:rTF complex (Homo sapiens, UniProt P08709); test: Factor VIIa assay (S-2288 substrate)
T2 construct: 2.5 ml 400 nMhuman Factor VIIa
T2 sequence (P08709 213-466 limits assumed): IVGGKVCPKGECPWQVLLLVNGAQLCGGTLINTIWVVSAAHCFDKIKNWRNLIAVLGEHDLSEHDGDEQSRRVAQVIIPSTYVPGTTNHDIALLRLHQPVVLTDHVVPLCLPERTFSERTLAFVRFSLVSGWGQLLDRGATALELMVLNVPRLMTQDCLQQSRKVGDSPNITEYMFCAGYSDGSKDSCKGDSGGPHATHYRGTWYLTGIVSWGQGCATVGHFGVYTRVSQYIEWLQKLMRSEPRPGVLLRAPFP
T2 sequence (P08709 61-212 partner limits assumed): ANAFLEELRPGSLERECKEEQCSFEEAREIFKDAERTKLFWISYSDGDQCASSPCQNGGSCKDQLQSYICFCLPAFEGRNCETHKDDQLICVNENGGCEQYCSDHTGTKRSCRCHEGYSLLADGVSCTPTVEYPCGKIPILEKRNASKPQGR
T2 sequence (P13726 33-295 partner): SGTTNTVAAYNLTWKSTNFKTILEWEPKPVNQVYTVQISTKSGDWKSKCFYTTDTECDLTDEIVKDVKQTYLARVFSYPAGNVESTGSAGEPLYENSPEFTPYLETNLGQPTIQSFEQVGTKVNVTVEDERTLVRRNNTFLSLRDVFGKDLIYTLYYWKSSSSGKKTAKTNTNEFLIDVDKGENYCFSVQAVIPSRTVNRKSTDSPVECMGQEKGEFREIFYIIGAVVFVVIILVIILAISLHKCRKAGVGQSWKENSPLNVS
Description: (§4) The specificity of the peptide aldehydes (8 through 12) was determined in vitro by measurement of their IC50 against other enzymes involved in hemostasis. A specific concentration of enzyme and its substrate were challenged with varying concentrations of inhibitor. IC50 is that concentration of inhibitor giving 50% inhibition of substrate turnover, under the assay conditions. Specific assay procedures used are presented below.
as §2
Enzyme activity was determined using as substrate, S-2288 [D-isoleucyl-L-prolyl-L-arginine-p-nitroanilide dihydrochloride], purchased from Kabi Diagnostica. The substrate was made up in deionized water prior to use.
Both solutions were then incubated for 30 minutes at room temperature before use in the assay.
(§5) The assay was run by combining in appropriate wells 50 μL inhibitor in TBS or TBS alone and 100 μL of Factor VIIa:rTF complex or background control, incubating this mixture for 30 minutes at room temperature, adding 50 μL of 2 mM S-2288, incubating for an additional 30 to 60 minutes at room temperature, then reading the absorbance of the wells at 405 nm on a microtiter plate reader set with background substraction at 650 nm.

[1] = target: recombinant tissue plasminogen activator (Homo sapiens, UniProt P00750); test: Tissue plasminogen activator assay (S-2288 substrate)
recombinant tissue plasminogen activator, sequence (P00750 36-562): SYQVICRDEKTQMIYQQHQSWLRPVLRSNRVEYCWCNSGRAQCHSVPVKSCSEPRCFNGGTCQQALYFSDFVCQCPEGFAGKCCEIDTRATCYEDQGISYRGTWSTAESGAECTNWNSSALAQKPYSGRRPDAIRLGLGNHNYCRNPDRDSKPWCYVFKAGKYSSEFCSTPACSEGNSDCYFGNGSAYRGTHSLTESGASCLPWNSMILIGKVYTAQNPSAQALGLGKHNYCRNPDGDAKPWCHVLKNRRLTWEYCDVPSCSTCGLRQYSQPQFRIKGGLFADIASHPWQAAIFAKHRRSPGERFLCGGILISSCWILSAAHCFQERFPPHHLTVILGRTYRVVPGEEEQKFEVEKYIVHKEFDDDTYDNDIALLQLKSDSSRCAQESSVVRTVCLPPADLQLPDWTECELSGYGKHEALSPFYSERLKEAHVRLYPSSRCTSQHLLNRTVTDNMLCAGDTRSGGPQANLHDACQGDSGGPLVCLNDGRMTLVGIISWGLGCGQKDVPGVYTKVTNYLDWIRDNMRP
Description: as §1, §2, §3

human urokinase = target: T3, human urokinase (Homo sapiens, UniProt P00749); test: Urokinase assay (S-2444 substrate)
T3 construct: 50 μL of 270 U/mL human urokinase
Description: as §4, §2
Enzyme activity was determined using as substrate S-2444 [L-pyroglutamyl-L-glycyl-L-arginine-p-nitroanilide hydrochloride], purchased from Kabi Diagnostica. The substrate was made up in deionized water prior to use.
as §5, with “50” for “100”, “270 U/mL human urokinase (or TBS as” for “Factor VIIa:rTF complex or”, “control) and 50 μL TBS,” for “control,”, “1” for “of 2”, “S-2444,” for “S-2288,”, “30” for “30 to 60”

bovine trypsin = target: T4, bovine trypsin (Bos taurus, UniProt P00760); test: Trypsin assay, IC50 (S-2222 substrate)
T4 sequence (P00760 24-246): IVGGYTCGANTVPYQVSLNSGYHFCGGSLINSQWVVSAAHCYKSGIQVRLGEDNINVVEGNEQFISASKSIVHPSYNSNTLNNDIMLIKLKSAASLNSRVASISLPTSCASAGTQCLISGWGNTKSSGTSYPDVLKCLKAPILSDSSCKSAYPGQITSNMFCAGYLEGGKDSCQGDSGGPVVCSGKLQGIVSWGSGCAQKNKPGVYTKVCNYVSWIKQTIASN
Description: as §1, §2, §3

[2] = 30 min preincubation, room temperature, tested 0.025-25 μM, Inact. = no inhibition at highest concentration
[3] = [IC50 for Trypsin/IC50 for other enzyme]×100, lower = more trypsin selective

T1 sequence (P03952 391-638 limits assumed): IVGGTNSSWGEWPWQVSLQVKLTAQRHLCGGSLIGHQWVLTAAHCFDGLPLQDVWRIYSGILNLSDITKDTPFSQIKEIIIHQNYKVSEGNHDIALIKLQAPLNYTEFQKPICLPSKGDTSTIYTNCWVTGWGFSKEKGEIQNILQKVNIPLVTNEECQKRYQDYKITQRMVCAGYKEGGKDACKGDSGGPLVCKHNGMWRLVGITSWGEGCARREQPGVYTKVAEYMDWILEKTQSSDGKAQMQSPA
T1 sequence (P03952 20-390 partner limits assumed): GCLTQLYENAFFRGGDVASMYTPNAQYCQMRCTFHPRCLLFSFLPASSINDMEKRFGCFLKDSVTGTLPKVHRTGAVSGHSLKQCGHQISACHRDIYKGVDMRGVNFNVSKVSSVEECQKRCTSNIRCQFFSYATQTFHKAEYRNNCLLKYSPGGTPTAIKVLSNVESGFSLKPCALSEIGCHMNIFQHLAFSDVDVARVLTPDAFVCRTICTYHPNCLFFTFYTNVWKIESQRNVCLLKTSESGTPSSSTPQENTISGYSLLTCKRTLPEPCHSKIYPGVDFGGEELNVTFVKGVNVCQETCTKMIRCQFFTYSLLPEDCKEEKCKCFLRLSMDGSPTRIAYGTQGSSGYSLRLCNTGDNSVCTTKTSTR

IC50 (human kallekrein; [2]): 17 µM
Calculated % Selectivity Kallikrein (human kallekrein; [3]): 0.08%
IC50 VIIA (Factor VIIa:rTF complex; [2]): Inact.
Calculated % Selectivity VIIa (Factor VIIa:rTF complex; [3]): 0%
IC50 tPA [1, 2]: Inact.
Calculated % Selectivity tPA [1, 3]: 0%
IC50 (human urokinase; [2]): 25 µM
Calculated % Selectivity UK (human urokinase; [3]): 0.06%
IC50 (bovine trypsin; 30 min preincubation, room temperature, tested 0.025-25 μM): 0.014 µM
Calculated % Selectivity Trypsin (bovine trypsin; trypsin relative to itself (reference, 100 by definition)): 100%
Structure (SMILES): CC(C)(C)OC(=O)N[C@@H](CC(=O)O)C(=O)N1CCC[C@H]1C(=O)N[C@H](C=O)CCCNC(=N)N [Compound 9, N-t-butyloxycarbonyl-L-Asp-L-Pro-L-argininal] (Boc-Asp-Pro-Arg-aldehyde)
